Measured values as given in US6548480B1, “Phosphonic acid derivatives with metallopeptidase inhibitory activity” (Zambon Group S.p.A., priority 1995, dated 2003).
Counter-ions that a name gives are not always drawn.

Columns and labels:
[1] = target: T1, NEP (Rattus norvegicus, UniProt P07861); assay: In vitro NEP-inhibitory activity in rat kidney cortex membranes ([3H][Leu5]-enkephaline hydrolysis); assay type: biochemical; parameters: from tissue; host or cells: kidney cortex membranes of male Sprague-Dawley rats; details: [3H][Leu5]-enkephaline 15 nM, 30° C., compounds of formula I tested as lithium salts
T1 sequence (P07861 1-750): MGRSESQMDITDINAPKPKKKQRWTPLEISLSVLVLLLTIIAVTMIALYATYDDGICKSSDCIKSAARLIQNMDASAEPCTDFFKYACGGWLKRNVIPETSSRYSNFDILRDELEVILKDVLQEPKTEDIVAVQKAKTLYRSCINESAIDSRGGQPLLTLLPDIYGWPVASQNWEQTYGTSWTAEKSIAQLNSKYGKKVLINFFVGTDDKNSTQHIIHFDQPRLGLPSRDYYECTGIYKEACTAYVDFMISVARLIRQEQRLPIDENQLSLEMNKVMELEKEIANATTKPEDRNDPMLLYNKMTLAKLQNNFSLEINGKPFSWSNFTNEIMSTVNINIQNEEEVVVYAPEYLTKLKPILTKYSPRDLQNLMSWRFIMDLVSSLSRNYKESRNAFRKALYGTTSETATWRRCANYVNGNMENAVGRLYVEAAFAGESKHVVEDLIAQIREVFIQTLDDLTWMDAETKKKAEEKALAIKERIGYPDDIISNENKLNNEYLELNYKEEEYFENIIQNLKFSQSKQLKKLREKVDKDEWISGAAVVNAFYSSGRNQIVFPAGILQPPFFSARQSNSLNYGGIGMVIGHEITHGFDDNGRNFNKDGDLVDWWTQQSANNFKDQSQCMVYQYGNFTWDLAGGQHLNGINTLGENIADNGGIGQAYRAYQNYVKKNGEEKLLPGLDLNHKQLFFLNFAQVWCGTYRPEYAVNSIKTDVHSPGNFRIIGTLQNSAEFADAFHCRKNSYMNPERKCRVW
Description: The NEP-inhibitory activity was evaluated in rat kidney cortex membranes prepared according to the procedure described by T. Maeda et al. in Biochim Biophys.
Cortex was carefully dissected, finely minced and suspended in a homogenization buffer (10 mM sodium phosphate pH 7.4 containing 1 mM MgCl2, 30 mM NaCl, 0.02% NaN3) 1:15 weight/volume.
The tissue was then homogenized for 30 seconds using an Ultra-Turrax homogenizer.
The membranes were collected from the buffer/sucrose interface, washed twice with 50 mM TRIS/HCl buffer (pH 7.4) and resuspended into the same buffer for storage.
The NEP-inhibitory activity was evaluated according to the method described by C.
Incubation (20 minutes at 30° C.) was stopped by adding HCl 0.1M (100 μl).
The percentage of inhibition of the metabolite formation in the membrane preparations treated with the compounds of formula I and with the comparative compounds with respect to the untreated membrane preparations was expressed as IC50 (nM) value.

[2] = target: T2, ACE (Oryctolagus cuniculus, UniProt P12822); assay: In vitro ACE-inhibitory activity (FAPGG substrate, spectrophotometric); assay type: biochemical; details: ACE purified by lung rabbit, FAPGG 0.8 mM, 37° C.; compounds of formula I tested as lithium salts
T2 construct: ACE (250 mU/ml purified by lung rabbit, EC 3.4.15.1 SIGMA); purchased SIGMA; host or cells: rabbit lung
T2 sequence (P12822 34-1310): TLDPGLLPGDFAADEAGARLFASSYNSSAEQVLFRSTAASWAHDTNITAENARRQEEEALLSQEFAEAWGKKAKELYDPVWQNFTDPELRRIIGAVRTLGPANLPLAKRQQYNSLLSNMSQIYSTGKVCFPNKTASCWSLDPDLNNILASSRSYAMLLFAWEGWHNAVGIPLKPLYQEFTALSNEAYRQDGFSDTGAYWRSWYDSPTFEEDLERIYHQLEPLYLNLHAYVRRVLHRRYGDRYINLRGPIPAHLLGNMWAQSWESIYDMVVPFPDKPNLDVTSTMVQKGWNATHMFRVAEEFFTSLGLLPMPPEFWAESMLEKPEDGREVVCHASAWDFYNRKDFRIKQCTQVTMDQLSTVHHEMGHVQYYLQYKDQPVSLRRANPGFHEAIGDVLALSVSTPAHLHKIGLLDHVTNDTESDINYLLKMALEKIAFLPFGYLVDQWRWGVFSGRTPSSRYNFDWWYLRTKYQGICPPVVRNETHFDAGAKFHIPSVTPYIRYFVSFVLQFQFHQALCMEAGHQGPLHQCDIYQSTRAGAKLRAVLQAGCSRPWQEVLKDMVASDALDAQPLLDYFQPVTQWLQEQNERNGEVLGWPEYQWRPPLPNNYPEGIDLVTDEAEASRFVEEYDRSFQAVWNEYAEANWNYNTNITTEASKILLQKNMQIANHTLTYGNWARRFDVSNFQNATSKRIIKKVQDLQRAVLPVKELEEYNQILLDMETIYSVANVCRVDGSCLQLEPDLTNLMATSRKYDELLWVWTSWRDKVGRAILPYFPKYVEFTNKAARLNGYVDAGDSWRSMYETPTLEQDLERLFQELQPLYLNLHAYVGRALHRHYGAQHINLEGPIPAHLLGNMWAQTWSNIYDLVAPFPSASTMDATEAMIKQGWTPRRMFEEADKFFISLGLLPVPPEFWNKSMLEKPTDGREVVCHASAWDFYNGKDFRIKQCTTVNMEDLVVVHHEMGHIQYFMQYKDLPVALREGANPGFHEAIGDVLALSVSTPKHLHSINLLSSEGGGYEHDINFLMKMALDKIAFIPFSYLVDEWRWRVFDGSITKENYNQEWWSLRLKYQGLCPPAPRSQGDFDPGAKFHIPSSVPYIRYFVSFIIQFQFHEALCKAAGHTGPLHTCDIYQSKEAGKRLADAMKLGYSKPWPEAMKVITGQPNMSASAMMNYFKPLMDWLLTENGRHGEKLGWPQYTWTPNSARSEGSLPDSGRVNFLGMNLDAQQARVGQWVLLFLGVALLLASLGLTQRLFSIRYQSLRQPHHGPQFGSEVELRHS
Description: The reaction was started by adding furylacryloylphenylalanylglycylglycine 0.8 mM (FAPGG-SIGMA).
Contemporaneously, by using a Beckman DU-50 spectrophotometer provided with a program for calculating delta A/minutes and regression coefficients of the enzyme kinetics curves, the absorbance at 340 nm was recorded in continuo for 5 minutes.

[3] = target: T3, ACE (Rattus norvegicus, UniProt P47820); assay: Ex vivo ACE-inhibitory activity in lungs of SHR after i.v. injection; parameters: species or system spontaneously hypertensive rats (SHR); details: iv, 5 minutes after i.v. injection, 21 μmoles/kg, read-out: ACE-inhibitory activity (lung) % of inhibition
T3 construct: After the removal of the lungs from SHR, the lung tissue was homogenized; from tissue; host or cells: lung homogenate of spontaneously hypertensive rats (SHR) dosed i.v
T3 sequence (P47820 36-1313): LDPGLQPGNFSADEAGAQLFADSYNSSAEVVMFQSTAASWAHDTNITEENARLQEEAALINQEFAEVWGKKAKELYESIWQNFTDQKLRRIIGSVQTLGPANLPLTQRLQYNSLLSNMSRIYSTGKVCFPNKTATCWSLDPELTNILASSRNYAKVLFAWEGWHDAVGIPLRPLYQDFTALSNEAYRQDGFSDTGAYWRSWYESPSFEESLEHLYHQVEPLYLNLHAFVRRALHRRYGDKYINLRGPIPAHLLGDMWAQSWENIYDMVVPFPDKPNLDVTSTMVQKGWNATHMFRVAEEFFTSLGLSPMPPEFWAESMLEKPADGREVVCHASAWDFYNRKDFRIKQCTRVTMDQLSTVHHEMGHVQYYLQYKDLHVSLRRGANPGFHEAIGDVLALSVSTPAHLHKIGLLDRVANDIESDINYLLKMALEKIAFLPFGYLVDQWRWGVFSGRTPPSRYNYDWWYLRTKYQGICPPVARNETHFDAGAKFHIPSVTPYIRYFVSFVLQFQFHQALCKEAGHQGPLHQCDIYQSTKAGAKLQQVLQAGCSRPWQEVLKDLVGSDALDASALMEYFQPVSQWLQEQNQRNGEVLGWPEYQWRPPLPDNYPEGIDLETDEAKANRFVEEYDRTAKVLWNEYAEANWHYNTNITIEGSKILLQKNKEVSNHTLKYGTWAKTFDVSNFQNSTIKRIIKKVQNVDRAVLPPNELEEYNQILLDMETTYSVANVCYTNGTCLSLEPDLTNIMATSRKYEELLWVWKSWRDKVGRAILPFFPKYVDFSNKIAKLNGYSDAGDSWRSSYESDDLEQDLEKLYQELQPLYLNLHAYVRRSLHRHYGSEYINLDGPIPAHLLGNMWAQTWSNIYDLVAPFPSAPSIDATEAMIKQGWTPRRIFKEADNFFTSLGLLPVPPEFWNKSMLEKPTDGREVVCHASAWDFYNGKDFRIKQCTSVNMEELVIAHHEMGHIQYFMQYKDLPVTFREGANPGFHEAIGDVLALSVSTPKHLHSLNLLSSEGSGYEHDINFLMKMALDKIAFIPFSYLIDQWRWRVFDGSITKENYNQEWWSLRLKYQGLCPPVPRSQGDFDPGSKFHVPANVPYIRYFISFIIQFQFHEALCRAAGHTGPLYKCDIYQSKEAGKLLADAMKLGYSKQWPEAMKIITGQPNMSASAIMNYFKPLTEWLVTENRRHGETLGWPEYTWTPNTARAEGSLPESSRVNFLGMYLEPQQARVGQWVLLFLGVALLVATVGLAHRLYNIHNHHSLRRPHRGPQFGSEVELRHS
Description: After the removal of the lungs from SHR, the lung tissue was homogenized and incubated for 2 hours at 37° C. in the presence of [^3H]Hyp-Gly-Gly, as a substrate.
The reaction was stopped by adding hydrochloric acid.
The released radio-labelled hyppuric acid was extracted with ethyl acetate and counted by liquid scintillation spectrometry, according to conventional methods.

[4] = target: T1, NEP; assay: Ex vivo NEP-inhibitory activity in kidneys of SHR after i.v. injection; parameters: After the removal of the kidneys from SHR, the renal tissue was homogenized; from tissue; host or cells: kidney homogenate of spontaneously hypertensive rats (SHR) dosed i.v; species or system spontaneously hypertensive rats (SHR); details: iv, 5 minutes after i.v. injection, 21 μmoles/kg, read-out: NEP-inhibitory activity (kidney) % of inhibition
Description: After the removal of the kidneys from SHR, the renal tissue was homogenized and incubated for 15 minutes at 37° C. in the presence of Glutaryl-Ala-Ala-Phe-2-naphthyliamide (GAAP), as a substrate, and aminopeptidase M at pH 7.6. The reaction was stopped by adding an aqueous solution at 10% of trichloroacetic acid.
The released 2-naphthylamine was determined by adding fast garnet dye (2 ml).

NEP-inhibitory activity IC50 (nM) [1]	IC50 [2] [µM]	inhibition at 21 µmol/kg [3] [%]	IC50 [1] [µM]	inhibition at 21 µmol/kg [4] [%]	SMILES
not active	–	–	–	–	C[C@H](CS)C(=O)N1CCC[C@H]1C(=O)O [Captopril]
–	0.02	25	0.0055	20	O=C(O)[C@H](Cc1ccccc1)NC(=O)[C@H](Cc1ccccc1)NP(=O)(O)CCCCc1ccccc1 [Compound R-1, N-[N′-(4-phenyl)butylphosphonyl-L-phenlalanyl]-L-phenylalanine dilithium salt]
